According to patent publication US20240148707A1, “MODULATION OF DRUG-DRUG INTERACTIONS OF VADADUSTAT” (Akebia Therapeutics, Inc., priority 2021, published 2024):
Read-outs that look alike come from different tables or passages of the source.

What was measured:
[1] = system: normal rats; assay: Hemoglobin concentration and red blood cell count after repeated dosing; format: in vivo, rat; conditions: repeated oral administration for 14 days
[2] = Plasma pharmacokinetics, repeated once-daily administration to healthy adult men; format: in vivo, human; conditions: first day of administration
[3] = molecular target: T1, CYP2C8 (Homo sapiens, UniProt P10632); assay: Enzyme inhibition (in vitro); format: in vitro ADME
T1 sequence (P10632 1-490): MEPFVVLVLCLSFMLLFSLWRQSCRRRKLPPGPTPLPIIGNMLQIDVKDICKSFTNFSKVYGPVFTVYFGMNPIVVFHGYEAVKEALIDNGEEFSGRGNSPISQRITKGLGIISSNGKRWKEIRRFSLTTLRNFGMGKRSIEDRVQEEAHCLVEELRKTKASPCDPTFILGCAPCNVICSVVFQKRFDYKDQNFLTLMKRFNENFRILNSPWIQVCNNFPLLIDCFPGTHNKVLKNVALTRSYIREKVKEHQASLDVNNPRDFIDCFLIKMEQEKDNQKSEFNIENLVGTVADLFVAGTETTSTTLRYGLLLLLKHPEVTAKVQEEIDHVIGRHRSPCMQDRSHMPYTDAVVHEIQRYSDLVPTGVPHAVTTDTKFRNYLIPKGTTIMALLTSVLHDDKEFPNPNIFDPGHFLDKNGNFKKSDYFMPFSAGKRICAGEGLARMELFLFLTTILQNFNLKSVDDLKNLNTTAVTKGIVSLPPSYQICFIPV

[4] = molecular target: CYP2C9 (Homo sapiens, UniProt P11712); assay: Enzyme inhibition (in vitro); format: in vitro ADME
CYP2C9, sequence (P11712 whole entry): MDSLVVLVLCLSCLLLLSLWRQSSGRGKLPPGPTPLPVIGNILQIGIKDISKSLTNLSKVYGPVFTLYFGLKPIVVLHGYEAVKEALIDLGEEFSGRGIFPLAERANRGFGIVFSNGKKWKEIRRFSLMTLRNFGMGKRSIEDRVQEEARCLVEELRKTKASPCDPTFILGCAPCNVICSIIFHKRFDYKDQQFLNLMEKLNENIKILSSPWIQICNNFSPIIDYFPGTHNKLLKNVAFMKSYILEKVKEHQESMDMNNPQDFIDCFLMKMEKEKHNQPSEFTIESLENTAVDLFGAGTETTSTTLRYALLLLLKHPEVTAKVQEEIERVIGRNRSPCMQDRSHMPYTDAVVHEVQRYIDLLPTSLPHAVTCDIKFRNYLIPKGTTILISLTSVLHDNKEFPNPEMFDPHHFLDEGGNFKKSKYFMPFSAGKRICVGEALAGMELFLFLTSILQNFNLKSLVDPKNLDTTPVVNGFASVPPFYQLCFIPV

[5] = Phase I drug-drug interaction study with sevelamer carbonate; format: in vivo, human; conditions: for clearance: read-out: Clearance (ClB) (converted); for Vd: read-out: Volume of distribution (Vc); for Tmax: median (minimum, maximum)
Protocol: A phase I, open-label, fixed-sequence study was conducted in healthy adult subjects to assess the effect of sevelamer carbonate as phosphate binders on the pharmacokinetics of a single dose of vadadustat.
Pharmacokinetics. A predose PK blood sample was collected on Day 1. After each dose of vadadustat administered (Days 1, 3, 5, and 7), blood samples for PK analysis were collected at the following time points: predose and 0.5, 1, 1.5, 2, 3, 4, 6, 9, 12, 16, 24, and 48 hours after each dose of vadadustat. The 48-hour postdose sample was collected before vadadustat administration on Days 3, 5, and 7. The following parameters were calculated and analyzed: AUC0-∞, AUC0-last, Cmax, Tmax, Kel, CIB, Vc/F, and t1/2.
Subjects were dosed approximately at the same designated time on each dosing day, where applicable. Study drugs were administered with approximately 8 ounces (240 mL) of water at room temperature in a seated position. Subjects were instructed to drink the full 8 ounces of water, and not to chew or break the tablets/gelcaps.
A single oral dose of vadadustat 300 mg (2×150 mg tablets) was administered on Days 1, 3, 5, and 7. Phosphate binder that is sevelamer carbonate (1600 mg, 2×800 mg tablets) was administered on Days 3, 5, and 7.
The 9-day treatment period was conducted as follows: • Day 1: vadadustat administered immediately after consuming breakfast. • Day 2: wash-out (no investigational product administration). • Day 3: vadadustat administered concomitantly with the requisite phosphate binder immediately after consuming breakfast. • Day 4: wash-out (no investigational product administration). • Day 5: vadadustat administered in fasted condition and the phosphate binder administered 1 hour later (breakfast must be served within 2 minutes after phosphate binder administration and consumed immediately after it is served). • Day 6: wash-out (no investigational product administration). • Day 7: phosphate binder administered immediately after consuming breakfast; vadadustat administered 2 hours after the phosphate binder was administered. • Day 8: wash-out (no investigational product administration). • Day 9: subjects discharged from the Clinical Research Unit (CRU) after the 48-hour postdose PK blood sample has been collected.

[6] = Phase I drug-drug interaction study with cyclosporine (Part 1, Arm 1); format: in vivo, human; conditions: for AUC(0-inf) / AUC(0-t) / Cmax: both sexes, human, plasma, fasted
Protocol: A phase I, open-label, 2-part study was conducted in healthy male and female subjects to evaluate the potential for interaction of cyclosporine (Part 1, Arm 1), probenecid (Part 1, Arm 2), and rifampin (Part 2) with vadadustat.
Subjects were randomized in a 1:1 ratio to 1 of 2 dosing sequences (A:B or B:A) to receive vadadustat 300 mg alone and vadadustat 300 mg in combination with oral cyclosporine 500 mg in a crossover design. Study drugs were administered in the morning after at least a 10-hour overnight fast. Subjects remained fasted for at least 4 hours post-dose. • Treatment A: a single oral dose of vadadustat (300 mg) administered as 2×150 mg tablets. • Treatment B: a single oral dose of vadadustat (300 mg) administered as 2×150 mg tablets co-administered with a single oral dose of cyclosporine (500 mg) administered as 5×100 mg capsules.
On the morning of Day 1, subjects received the first treatment (A or B). Following a 7-day washout, subjects crossed over to Period 2 to receive the second treatment of the dosing sequence (A or B) on Day 8.
On each dosing day (Day 1 and Day 8) blood samples for PK analysis were collected up to 48 hours post-dose. Subjects were discharged from the clinical research unit (CRU) on the morning of Day 10, after the final 48-hour post-dose PK sample had been collected. A follow-up phone call was conducted 30 days±2 days after the final dose.

[7] = concomitant administration of phosphate binder vs vadadustat alone, ANOVA
[8] = human, plasma, oral, 300 mg, vadadustat 300 mg alone, immediately after breakfast, mean ± SD
[9] = human, plasma, oral, vadadustat 300 mg 2 hours after sevelamer carbonate 1600 mg with breakfast, mean ± SD
[10] = human, plasma, oral, vadadustat 300 mg concomitantly with sevelamer carbonate 1600 mg, immediately after breakfast, mean ± SD
[11] = human, plasma, oral, vadadustat 300 mg fasting, 1 hour prior to sevelamer carbonate 1600 mg, mean ± SD
[12] = vadadustat 300 mg alone, immediately after breakfast, mean ± SD

Q: Which hemoglobin concentration [1] does the source give for `O=C(O)CNC(=O)c1ncc(-c2cccc(Cl)c2)cc1O` [Compound 1, {[5-(3-chlorophenyl)-3-hydroxypyridine-2-carbonyl]amino}acetic acid] here?
A: Its hemoglobin concentration is “increasing”.

Q: What about the “red blood cell count” value [1] of the same compound?
A: Its value is “increasing”.

Q: And the Tmax ([2]; 300 mg once a day)?
A: Its Tmax is 1.95 h.

Q: What about the t1/2 ([2]; 300 mg once a day) of the same compound?
A: The t1/2 was 6.14 ± 0.763 h.

Q: What about the Tmax ([2]; 600 mg once a day) of the same compound?
A: The Tmax was 1.98 h.

Q: What about the “inhibitory effect on CYP2C8” value [3] of the same compound?
A: Its value is “inhibitory effect”.

Q: And the “inhibitory effect on CYP2C9” value [4]?
A: The value was “inhibitory effect”.

Q: What about the “reduction of vadadustat AUC0-last” value [5, 7] of the same compound?
A: The value was “about 37%”.

Q: What about the “reduction of vadadustat AUC0-∞” value [5, 7] of the same compound?
A: The value was “about 37%”.

Q: What about the “reduction of vadadustat Cmax” value [5, 7] of the same compound?
A: The value was “about 40%”.

Q: And the AUC(0-t) [5, 8]?
A: Its AUC(0-t) is 185 ± 57.3 µg·h/mL.

Q: What about the AUC(0-inf) ([5]; human, plasma, oral, 300 mg, vadadustat 300 mg alone, immediately after breakfast, mean ± SD, read-out: AUC0-∞) of the same compound?
A: The AUC(0-inf) was 190 ± 57.2 µg·h/mL.

Q: What about the clearance [5, 8] of the same compound?
A: Its clearance is 28.8 mL/min.

Q: And the Vd [5, 8]?
A: Its Vd is 11.5 ± 2.84 L.

Q: And the Tmax ([5]; human, plasma, oral, 300 mg, vadadustat 300 mg alone, immediately after breakfast)?
A: The Tmax was 3.97 h.

Q: And the AUC(0-inf) ([5]; human, plasma, oral, concurrent vadadustat and sevelamer carbonate, read-out: geometric LS mean AUC0-∞)?
A: The AUC(0-inf) was 114 µg·h/mL.

Q: What about the AUC(0-t) [5, 9] of the same compound?
A: The AUC(0-t) was 151 ± 57.5 µg·h/mL.

Q: And the AUC(0-inf) ([5]; human, plasma, oral, vadadustat 300 mg 2 hours after sevelamer carbonate 1600 mg with breakfast, mean ± SD, read-out: AUC0-∞)?
A: The AUC(0-inf) was 154 ± 57.8 µg·h/mL.

Q: And the clearance [5, 9]?
A: Its clearance is 38.3 mL/min.

Q: What about the half-life ([5]; human, plasma, oral, vadadustat 300 mg 2 hours after sevelamer carbonate 1600 mg with breakfast, mean ± SD, read-out: Elimination half-life (t1/2) (converted)) of the same compound?
A: The half-life was 5.1 ± 0.97 h.

Q: And the Vd [5, 9]?
A: The Vd was 16.4 ± 7.04 L.

Q: What about the Tmax ([5]; human, plasma, oral, vadadustat 300 mg 2 hours after sevelamer carbonate 1600 mg with breakfast) of the same compound?
A: Its Tmax is 2.99 h.

Q: What about the AUC(0-t) [5, 10] of the same compound?
A: The AUC(0-t) was 121 ± 50.4 µg·h/mL.

Q: And the AUC(0-inf) ([5]; human, plasma, oral, vadadustat 300 mg concomitantly with sevelamer carbonate 1600 mg, immediately after breakfast, mean ± SD, read-out: AUC0-∞)?
A: The AUC(0-inf) was 124 ± 51 µg·h/mL.

Q: And the clearance [5, 10]?
A: The clearance was 48 mL/min.

Q: What about the Cmax ([5]; human, plasma, oral, vadadustat 300 mg concomitantly with sevelamer carbonate 1600 mg, immediately after breakfast, mean ± SD, read-out: Cmax) of the same compound?
A: Its Cmax is 16600 ± 5750 ng/mL.

Q: What about the Vd [5, 10] of the same compound?
A: The Vd was 19.4 ± 10.1 L.

Q: What about the Tmax ([5]; human, plasma, oral, vadadustat 300 mg concomitantly with sevelamer carbonate 1600 mg, immediately after breakfast) of the same compound?
A: The Tmax was 3.49 h.

Q: And the AUC(0-t) [5, 11]?
A: The AUC(0-t) was 152 ± 46.2 µg·h/mL.

Q: What about the AUC(0-inf) ([5]; human, plasma, oral, vadadustat 300 mg fasting, 1 hour prior to sevelamer carbonate 1600 mg, mean ± SD, read-out: AUC0-∞) of the same compound?
A: The AUC(0-inf) was 156 ± 48.5 µg·h/mL.

Q: And the clearance [5, 11]?
A: The clearance was 35.7 mL/min.

Q: And the Cmax ([5]; human, plasma, oral, vadadustat 300 mg fasting, 1 hour prior to sevelamer carbonate 1600 mg, mean ± SD, read-out: Cmax)?
A: The Cmax was 31300 ± 10600 ng/mL.

Q: What about the Vd [5, 11] of the same compound?
A: Its Vd is 13.6 ± 5.04 L.

Q: And the Tmax ([5]; human, plasma, oral, vadadustat 300 mg fasting, 1 hour prior to sevelamer carbonate 1600 mg)?
A: The Tmax was 1.49 h.

Q: What about the Cmax [5, 12] of the same compound?
A: Its Cmax is 26700 ± 6610 ng/mL.

Q: And the “Elimination half-life (t1/2)” value [5, 12]?
A: Its value is 4.81 ± 1.15 h.

Q: What about the “Elimination half-life (t1/2)” value ([5]; vadadustat 300 mg concomitantly with sevelamer carbonate 1600 mg, immediately after breakfast, mean ± SD) of the same compound?
A: The value was 4.70 ± 0.90 h.

Q: What about the “changes in vadadustat exposure” value ([5]; vadadustat administered 1 hour prior to sevelamer carbonate) of the same compound?
A: Its value is “within the prespecified no-effect boundaries of 80% to 125%”.

Q: And the “changes in vadadustat exposure” value ([5]; vadadustat administered 2 hours after sevelamer carbonate)?
A: Its value is “within the prespecified no-effect boundaries of 80% to 125%”.

Q: What about the AUC(0-inf) ([6]; vadadustat 300 mg + cyclosporine 500 mg, single oral doses, read-out: AUCinf, geometric LSM, Treatment V + C) of the same compound?
A: Its AUC(0-inf) is 293 µg·h/mL.

Q: And the AUC(0-t) ([6]; vadadustat 300 mg + cyclosporine 500 mg, single oral doses, read-out: AUClast, geometric LSM, Treatment V + C)?
A: The AUC(0-t) was 292 µg·h/mL.

Q: And the Cmax ([6]; vadadustat 300 mg + cyclosporine 500 mg, single oral doses, read-out: Cmax, geometric LSM, Treatment V + C)?
A: Its Cmax is 37100 ng/mL.

Q: And the AUC(0-inf) ([6]; vadadustat 300 mg alone, single oral dose, read-out: AUCinf, geometric LSM, Treatment V)?
A: Its AUC(0-inf) is 251 µg·h/mL.

Q: And the AUC(0-t) ([6]; vadadustat 300 mg alone, single oral dose, read-out: AUClast, geometric LSM, Treatment V)?
A: Its AUC(0-t) is 249 µg·h/mL.

Q: And the Cmax ([6]; vadadustat 300 mg alone, single oral dose, read-out: Cmax, geometric LSM, Treatment V)?
A: Its Cmax is 45400 ng/mL.

Q: What about the tolerability ([6]; during treatment with cyclosporine, healthy subjects) of the same compound?
A: The tolerability was “tolerated”.

Q: And the “changes in the Cmax and AUC values” ([6]; vadadustat in combination with cyclosporine)?
A: Its value is “no clinically relevant changes”.
